Test results: PMC7224190, “Pharmacological inhibition of PRMT7 links arginine monomethylation to the cellular stress response” (Nature Communications, 2020)

Tests used:
[1] = target: T1, BCDIN3D (Homo sapiens, UniProt Q7Z5W3); assay: biochemical; set-up: radiometric methyltransferase selectivity assay with tritiated SAM, per cent activity; details: read-out: % of control remaining
T1 sequence (Q7Z5W3 1-292): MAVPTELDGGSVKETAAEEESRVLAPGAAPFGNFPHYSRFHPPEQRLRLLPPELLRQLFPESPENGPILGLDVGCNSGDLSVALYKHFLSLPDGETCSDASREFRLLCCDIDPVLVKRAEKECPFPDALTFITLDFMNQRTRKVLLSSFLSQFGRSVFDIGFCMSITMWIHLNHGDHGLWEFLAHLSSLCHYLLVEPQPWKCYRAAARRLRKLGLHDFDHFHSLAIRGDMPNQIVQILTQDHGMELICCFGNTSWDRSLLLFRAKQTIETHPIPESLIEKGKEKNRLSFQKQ
Description: (§1) The methyltransferase selectivity was assessed at two compound concentrations of 1 and 10 μM by radiometric assays using tritiated-SAM. For methyltransferases: MLL1, MLL3, EZH1 (PRC2), and EZH2 (PRC2), G9a, GLP, SUV39H1, SUV39H2, SUV420H1, SUV420H2, SETD2, SETD8, SETDB1, SETD7, PRMT1, PRMT3, PRMT4, PRMT5/ MEP50 complex, PRMT6, PRMT7, PRMT8, PRMT9, PRDM9, SMYD2, SMYD3, DNMT1, and BCDIN3D the incorporation of a tritium-labeled methyl group into biotinylated substrate was monitored using scintillation proximity assay (SPA). Briefly, a 10 μL reaction containing ^3H-SAM and substrate at concentrations close to the apparent Km values for each enzyme (balanced conditions) was prepared. The reactions were quenched with 10 μL of 7.5 M guanidine hydrochloride; 180 μL of 20 mM Tris buffer (pH 8.0) were added, and the mixture was transferred to a 96-well FlashPlate and incubated for 1 h. The counts per minute (CPM) was measured on a TopCount plate reader. The CPM in the absence of compound or enzyme was defined as 100% activity and background (0%), respectively, for each dataset[74]–[76]. Selectivity of SGC8158 against 342 kinases was evaluated in a kinase panel TR-FRET assay at 1 and 0.1 μM compound in duplicates as described before. Briefly, tagged kinases were incubated with compound and staurosporine-based fluorescent probe where the binding was detected using Tb conjugated anti-tag antibody energy transfer to the probe. Excitation wavelength was 337 nm and fluorescent emission signal was measured for Tb (486 nm) and fluorescent probe (BODIPY, 515 nm). Specific and non-specific binding was determined in the absence and presence of unlabeled staurosporine.

[2] = target: T2, NSD2 (Homo sapiens, UniProt O96028); assay: biochemical; set-up: radiometric methyltransferase selectivity assay with tritiated SAM, per cent activity; details: read-out: % of control remaining
T2 sequence (O96028 1-1365): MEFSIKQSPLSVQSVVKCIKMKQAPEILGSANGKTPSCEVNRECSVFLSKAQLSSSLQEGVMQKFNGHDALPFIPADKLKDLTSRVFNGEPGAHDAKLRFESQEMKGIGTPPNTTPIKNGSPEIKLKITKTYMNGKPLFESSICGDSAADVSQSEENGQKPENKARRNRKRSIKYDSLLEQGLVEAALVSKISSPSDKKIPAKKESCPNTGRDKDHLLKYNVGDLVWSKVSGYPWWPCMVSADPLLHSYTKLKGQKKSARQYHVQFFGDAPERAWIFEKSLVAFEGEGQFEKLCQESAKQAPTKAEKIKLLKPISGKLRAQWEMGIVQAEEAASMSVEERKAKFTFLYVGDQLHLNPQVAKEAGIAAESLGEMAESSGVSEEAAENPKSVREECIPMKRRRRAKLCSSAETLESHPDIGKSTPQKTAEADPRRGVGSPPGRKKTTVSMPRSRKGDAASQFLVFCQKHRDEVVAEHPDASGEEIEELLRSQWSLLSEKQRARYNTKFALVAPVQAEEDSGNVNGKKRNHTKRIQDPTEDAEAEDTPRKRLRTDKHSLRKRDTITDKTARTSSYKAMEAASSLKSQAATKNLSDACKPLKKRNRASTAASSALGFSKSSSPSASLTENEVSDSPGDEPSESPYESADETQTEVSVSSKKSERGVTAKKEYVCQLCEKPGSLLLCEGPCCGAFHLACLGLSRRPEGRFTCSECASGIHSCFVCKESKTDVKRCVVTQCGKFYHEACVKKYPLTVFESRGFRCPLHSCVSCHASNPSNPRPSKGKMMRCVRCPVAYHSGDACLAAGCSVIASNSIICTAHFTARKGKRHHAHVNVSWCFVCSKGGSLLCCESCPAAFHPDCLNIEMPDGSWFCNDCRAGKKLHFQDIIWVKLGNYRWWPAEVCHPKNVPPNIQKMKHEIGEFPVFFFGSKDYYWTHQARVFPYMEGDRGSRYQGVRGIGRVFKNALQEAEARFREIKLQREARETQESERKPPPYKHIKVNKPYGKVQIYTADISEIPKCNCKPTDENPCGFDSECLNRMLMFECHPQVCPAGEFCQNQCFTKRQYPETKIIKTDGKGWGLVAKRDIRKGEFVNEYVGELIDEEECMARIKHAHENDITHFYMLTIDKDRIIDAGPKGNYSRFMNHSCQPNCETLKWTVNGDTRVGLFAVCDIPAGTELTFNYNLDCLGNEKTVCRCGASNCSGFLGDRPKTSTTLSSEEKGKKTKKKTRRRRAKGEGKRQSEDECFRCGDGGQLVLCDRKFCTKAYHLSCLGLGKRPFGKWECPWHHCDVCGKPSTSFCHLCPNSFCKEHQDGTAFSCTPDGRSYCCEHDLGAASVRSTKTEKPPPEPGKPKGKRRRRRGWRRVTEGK
Description: as §1

## CC1(C)O[C@@H]2[C@H](O1)[C@@H](CSCCCCNCc1cccc(-c3ccc(Cl)cc3)c1)O[C@H]2n1cnc2c(N)ncnc21 [SGC8158N]
[1]
  remaining activity at 1 µM: 96%
  remaining activity at 10 µM: 94%
[2]
  remaining activity at 1 µM: 92%
  remaining activity at 10 µM: 97%

## Nc1ncnc2c1ncn2[C@@H]1O[C@H](CSCCCCNCc2cccc(-c3ccc(Cl)cc3)c2)[C@@H](O)[C@H]1O [SGC8158]
[1]
  remaining activity at 1 µM: 55%
  remaining activity at 10 µM: 11%
[2]
  remaining activity at 1 µM: 106%
  remaining activity at 10 µM: 101%
